From patent US20190030005A1, “THERAPEUTIC AGENT FOR DYSLIPIDEMIA” (KOWA COMPANY, LTD., priority 2013, published 2019)

Columns and labels:
VLDL-C = test: Effects of combination use of Compound A and EPA on plasma VLDL-C levels in rats; format: in vivo, Wister rats; conditions: for VLDL-C Relative value (vs Control): oral once a day, Wister rats, plasma; for Effect on VLDL-C level, in words: Compound A 0.1 mg/kg and/or EPA 200 mg/kg, single or combination administration, Dunnett's test vs control
Description: (§1) Wister rats (7-week old, male, Charles River Laboratories Japan Inc.) were used for the experiments. Under ad libitum feeding, the blood samples were obtained from the cervical vein, and the rats were divided into four groups (N=8) based on the plasma TG levels, plasma TC levels and the body weights. From the next day, a solvent (a 0.5% aqueous solution of methyl cellulose: […] In the afternoon of the final administration day, the blood samples were obtained under a condition of 4 hours fasting under anesthesia with pentobarbital, and the plasma VLDL-C levels were measured according to the method by Usui et al. (Usui S et al., Clin. Chem. 46, 63-72, 2000.) by high-speed liquid chromatography. Further, the TG levels were measured by an automatic analyzer, by using a measuring reagent, Qualigent TG (Sekisui Medical Co., Ltd.). The synergistic effect was determined by using Bürgi's formula (when a relative level in a group of combined use is smaller than a value of a product of a relative level of single agent A and a relative level of single agent B, then there is a synergistic effect). Group 2: 0.1 mg/kg of Compound A Group 3: 200 mg/kg of EPA Group 4: 0.1 mg/kg of Compound A and 200 mg/kg of EPA The results are shown as the mean value±standard deviation. Comparison between the control group and the drug-administration group was performed using a Dunnett's multiple comparison test, and a risk rate of less than 5% was determined to have a significant difference.

LDL-C = test: Effects of combination use of Compound A and EPA on plasma LDL-C level in Wister rats; format: in vivo; conditions: for LDL-C Relative value (vs. Control): oral once a day, Wister rats, plasma; for Effect on LDL-C level, in words: single administration of Compound A (0.1 mg/kg) or EPA, Dunnett's test vs control
Description: as §1, with “divided into six groups (N=8)” for “divided into four groups (N=8)”, “the plasma LDL-C levels were” for “the plasma VLDL-C levels were”, “liquid chromatography. The synergistic” for “liquid chromatography. Further, the TG levels were measured by an automatic analyzer, by using a measuring reagent, Qualigent TG (Sekisui Medical Co., Ltd.). The synergistic”, “of EPA Group 5: 3,000 mg/kg of EPA Group 6: 0.1 mg/kg of Compound A and 3,000 mg/kg of EPA The results” for “of EPA The results”, “group and drug-administration group” for “group and the drug-administration group”, “was performed by using a” for “was performed using a”

TG = test: Effects of combination use of Compound A and EPA on TG levels in rats; format: in vivo, Wister rats; conditions: for TG Relative value (vs Control): oral once a day, Wister rats; for Effect on TG level, in words: Compound A 0.1 mg/kg and/or EPA 200 mg/kg, single or combination administration, Dunnett's test vs control
Description: as §1

Structure (SMILES) | VLDL-C Relative value (vs Control) (VLDL-C; Compound A 0.1 mg/kg alone) | Effect on VLDL-C level, in words (VLDL-C) | LDL-C Relative value (vs. Control) (LDL-C; Compound A 0.1 mg/kg alone) | Effect on LDL-C level, in words (LDL-C) | TG Relative value (vs Control) (TG; Compound A 0.1 mg/kg alone) | Effect on TG level, in words (TG) | VLDL-C Relative value (vs Control) (VLDL-C; EPA 200 mg/kg alone) | LDL-C Relative value (vs. Control) (LDL-C; EPA 200 mg/kg alone) | LDL-C Relative value (vs. Control) (LDL-C; EPA 3000 mg/kg alone) | TG Relative value (vs Control) (TG; EPA 200 mg/kg alone)
CC[C@@H](Oc1cccc(CN(CCCOc2ccc(OC)cc2)c2nc3ccccc3o2)c1)C(=O)O [Compound A, (R)-2-[3-[[N-(benzoxazol-2-yl)-N-3-(4-methoxyphenoxy)propyl]aminomethyl]phenoxy]butyric acid] | 0.68 | a tendency of decreasing the level of VLDL-C was observed | 1.02 | an obvious effect on LDL-C level was not observed | 0.82 | a tendency of decreasing the level of TG was observed | – | – | – | –
CC/C=C\C/C=C\C/C=C\C/C=C\C/C=C\CCCC(=O)O [EPA, All-cis-5,8,11,14,17-eicosapentaenoic acid] | – | any obvious effect on VLDL-C level was not observed | – | mild decreasing action on LDL-C level was observed | – | any obvious effect on TG level was not observed | 0.92 | 0.84 | 0.85 | 1.10
